Source: patent publication US20140322315A1, “CYSTEAMINE AND/OR CYSTAMINE FOR TREATING ISCHEMIC INJURY” (The Regents of the University of California, priority 2011, published 2014)
“Also recorded” adds a separate entry of the source.

Key:
[1] = tested on: subjects with NAFLD; assay: Pilot study of EC-cysteamine in children with NAFLD: ALT, AST, BMI, leptin, responders; type: in vivo, human; settings: for mean AST / mean ALT: all study subjects; for mean AST: baseline 60.9 IU/L; for mean ALT: baseline 123 IU/L; for mean leptin level: responders, baseline 21.3 ng/mL
From the text: (§1) Eleven children ≧10 years, with biopsy-proven NAFLD and an alanine aminotransferase (ALT) level ≧60 IU/L, were enrolled. They were either newly diagnosed or had not received specific therapy for NAFLD such as vitamin E or insulin-sensitizing drugs for at least 3 months before entering the study. All had undertaken standard of care lifestyle changes involving diet and exercise for more than 3 months. The study's primary outcome measure was normalization (≦40 IU/L) or 50% reduction in baseline serum ALT at 24 weeks of EC-cysteamine therapy; these subjects were deemed responders.
(§2) Subjects were treated for 24 wks and remained monitored for 24 weeks following its discontinuation. The mean EC-cysteamine dose ingested was 654 mg twice daily or 15.2 mg/kg/day (median dose 900 mg) for 24 wks.
(§3) During the pilot study blood was collected at pre-defined intervals. Serum was stored at −80° C. until time of assay. Adequate serum volumes were available in 10 of the 11 subjects with NAFLD and only up to 16 weeks post-treatment.

[2] = tested on: adiponectin; assay: Serum total and multimeric adiponectin in subjects with NAFLD treated 24 weeks with EC-cysteamine; type: in vivo, human
From the text: as §1, §2, §3
(§4) Total and multimeric adiponectin levels were measured in serum taken from: (1) subject with NAFLD collected at 0 and 24 wks of cysteamine therapy and again 16 wks after stopping therapy (i.e., 40 weeks); (2) pretreated 0-week subjects with NAFLD and adults without NAFLD at room temperature and at 37° C. and also after incubation with cysteamine 90 μM for 1 hour at 37° C.; and (3) pretreated 0-week subjects with NAFLD before and after incubation with cysteamine at varying concentrations (15, 30, 45, 60, 90, 120 μM) for 1 hour at 37° C. to establish dose-response profile.
(§5) Sodium dodecyl sulfate polyacrylamide gel electrophoresis (SDS-PAGE) was performed according to standard Laemmli's method. Sample buffer for non-reducing, non-heat denaturing conditions contained 3% SDS; 50 mmol/1 Tris-HCL, pH 6.8 and 20% glycerol. Proteins were separated using 3-8% Tris-Acetate Gels (Invitrogen, Carlsbad Calif.) with Tris-Acetate running buffer per manufacturer instructions. For immunoblotting, proteins were transferred to nitrocellulose membranes. Membranes were washed with Tween (Tris-buffered Saline, 0.1% […]) and incubated with monoclonal antibody (1:500 BD Transduction Laboratories, San Diego, Calif.). After washing with Tris-buffered saline with 0.1% Tween (4×5 min) membranes were incubated with L-COR secondary antibodies (LI-COR Biotechnology, Lincoln Nebr.) at 1:20,000. Adiponectin multimers were detected and quantified using the LICOR imager and software analysis program. Relative distribution of adiponectin multimers was determined by dividing band density by total density (cellular adiponectin) or by total adiponectin as determined by ELISA (Millipore, Billerica, Mass.). The percentage of adionectin multimer was then multiplied by the total adiponectin level to calculate absolute oligomer value.

[3] = molecular target: T1, adiponectin multimers (Homo sapiens, UniProt Q15848); assay: Lean control / healthy subjects' serum incubated 1 hour with 90 μM cysteamine, adiponectin multimers; type: biochemical
T1 construct: from tissue; host or cells: human serum (pretreatment NAFLD subjects; adults without NAFLD)
T1 sequence (Q15848 19-244): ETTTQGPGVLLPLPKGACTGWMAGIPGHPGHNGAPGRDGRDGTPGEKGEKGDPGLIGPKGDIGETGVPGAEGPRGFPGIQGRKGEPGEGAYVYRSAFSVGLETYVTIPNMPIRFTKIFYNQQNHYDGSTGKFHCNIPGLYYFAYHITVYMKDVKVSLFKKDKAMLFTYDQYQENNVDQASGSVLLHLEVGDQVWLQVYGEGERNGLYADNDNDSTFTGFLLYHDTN
Method: as §4, §5
(§6) In another experiment, 25 μl total sample volume (5 μl diluted serum+15 μl water+5 μl 5×LB) was incubated with or without cysteamine at 37° C.×1 hr. A control was prepared without cysteamine and incubated at room temperature for 1 hour on the bench. The preparations were then run on 2×15-well 1.5 mm 3-8% Tris-acetate gels. Primary antibody—mouse anti-adiponectin 1:500, overnight at 4° C. and secondary antibody—goat anti-mouse IR800 1:20,000.

[4] = molecular target: T1, adiponectin multimers; assay: Dose response profile: NAFLD serum incubated with varying cysteamine concentrations, adiponectin multimers; type: biochemical; settings: 1 hour at 37° C.
Method: as §4, §5

[5] = tested on: circulating leukocytes; settings: Dohil et al., J. Pediatr 2006; cited from earlier work
[6] = molecular target: T1, adiponectin multimers; assay: Pretreatment serum of subjects with NAFLD incubated 1 hour with cysteamine, adiponectin multimers; type: biochemical
Method: as §4, §5

[7] = molecular target: T1, adiponectin multimers; assay: Gastric Banding (GB) serum incubated with cysteamine, adiponectin multimers by western blot; type: biochemical; settings: 37° C. + 45 μM cysteamine, 1 hr
Method: as §6
To determine threshold dose of cysteamine on reduction of serum adiponectin multimers, serum was collected and incubated with various concentrations of cysteamine. Six microliters of diluted GB serum was incubated with 24 μl water and various concentrations of cysteamine. Samples, were incubate in a tissue culture incubator for 1 hr at 37° C. with a control tube having no cysteamine addition. To each tube was then added 5 μl of 5× non-reducing loading buffer. The samples were vortexed and loaded on a 3-8% tris-Acetate gel and run for 75 min at 125 V constant current. The gel was transferred and blocked. The blot was then incubated overnight with anti-adiponectin antibody 1:500 in 3% BSA/TBS. The blot was washed and incubated with a secondary anti-mouse antibody for 1 hour. Densitometry was performed on a LICOR densitometer.

[8] = lean control serum, 37° C. + 90 μM cysteamine, 1 hr
[9] = NAFLD serum (n=10), cysteamine 1 hour at 37° C. (45 μM in FIG. 13), P<0.0001

- mean percentage of total adiponectin comprised of LMW after incubation ([3]; healthy subjects, 90 μM cysteamine 1 hour, before 11.1%): 18.0%
- mean percentage of total adiponectin comprised of HMW after incubation ([3]; healthy subjects, 90 μM cysteamine 1 hour, before 42.9%): 42.7%
- mean percentage of total adiponectin comprised of MMW after incubation ([3]; healthy subjects, 90 μM cysteamine 1 hour, before 46.0%): 39.3%
- LMW adiponectin absolute level change [3, 8]: no significant change
- MMW adiponectin absolute level change [3, 8]: significant decrease
- HMW level vs baseline ([4]; 120 μM cysteamine): reductions
- MMW level vs baseline ([4]; 120 μM cysteamine): reductions
- greatest percent increase in LMW ([4]; 120 μM cysteamine): 77%
- MMW levels vs baseline ([4]; all cysteamine concentrations (15-120 μM)): lower than baseline
- mean LMW level increase above baseline ([4]; all cysteamine concentrations used (15-120 μM)): > 60%
- HMW level increase above baseline ([4]; cysteamine 15, 30, 45, and 60 μM): about 10%
- HMW adiponectin level change ([6]; NAFLD pretreatment serum, cysteamine 1 hour at 37° C.): unchanged
- LMW adiponectin mean percent change vs pretreatment [6, 9]: increase
- MMW adiponectin mean percent change vs pretreatment [6, 9]: significant reduction
- mean percentage of total adiponectin comprised of HMW after incubation ([6]; NAFLD serum, cysteamine 1 hour at 37° C., before 8.2%): 8.6%
- mean percentage of total adiponectin comprised of LMW after incubation ([6]; NAFLD serum, cysteamine 1 hour at 37° C., before 28.5%): 36.7%
- mean percentage of total adiponectin comprised of MMW after incubation ([6]; NAFLD serum, cysteamine 1 hour at 37° C., before 63.3%): 54.7%
- HMW adiponectin change ([7]; p=0.009): significantly decrease
- LMW adiponectin change ([7]; p=0.05): significantly increase
Structure (SMILES): NCCS [cysteamine, Cysteamine]
- responders (ALT normalization ≦40 IU/L or 50% reduction at 24 weeks) ([1]; 24 weeks EC-cysteamine therapy, subjects with serum analyzed): Seven of the 10
- mean AST ([1]; 24 weeks of treatment, P=0.001): 32 IU/L
- mean ALT ([1]; 24 weeks of treatment, P=0.003): 55 IU/L
- mean AST ([1]; 40 weeks (16 weeks off therapy), P=0.012): 35 IU/L
- mean ALT ([1]; 40 weeks (16 weeks off therapy), P=0.055): 71 IU/L
- mean leptin level ([1]; 24 weeks, P=0.04): 15.7 ng/mL
- mean leptin level ([1]; 40 weeks): 19.5 ng/mL
- all sub-forms (multimer forms) of adiponectin, change from baseline ([2]; 24 weeks of oral EC-cysteamine): increased
- total adiponectin, baseline vs 40 wks ([2]; 40 weeks (therapy stopped at 24 weeks)): No significant difference
- relative proportion of HMW in total adiponectin ([2]; after 24 weeks cysteamine therapy, baseline 12.2%, P=0.02): increased significantly
- relative proportion of LMW in total adiponectin ([2]; after 24 weeks cysteamine therapy, baseline 14.1%): remained unchanged
- relative proportion of MMW in total adiponectin ([2]; after 24 weeks cysteamine therapy, baseline 73.7%, P=0.03): decreased
- total adiponectin change between 24-week and 40-week timepoints ([2]; after discontinuing therapy at 24 weeks, P=0.01): significant decrease
- mean percent increase of total adiponectin from baseline ([2]; all subjects, 0-24 weeks oral EC-cysteamine, P=0.05): significantly increased
- LMW adiponectin mean percent change vs baseline ([3]; lean control/healthy serum, 90 μM cysteamine, 1 hr, P<0.005): increase; also recorded: significant percent change
- MMW adiponectin mean percent change vs baseline ([3]; lean control/healthy serum, 90 μM cysteamine, 1 hr, P<0.01): reduction; also recorded: significant percent change
- HMW adiponectin level change ([3]; lean control/healthy serum, 37° C. + 90 μM cysteamine, 1 hr): unchanged; also recorded: no significant change
- intracellular cystine levels in circulating leukocytes [5]: lowering
